Test results published in patent publication US20230340011A1 (Asteroid Therapeutics, priority 2022, published 2023).

Biological target: SREBP-2 (Homo sapiens (Human), UniProt Q12772)
Experiment: In vitro assay SREBP-2: PathHunter U2OS SREBP-2 Nuclear Translocation Cell Line, U18666A-stimulated
Format: cell-based
Settings: PathHunter U2OS SREBP-2 nuclear translocation cells, U18666A 10 μM, overnight (16 hours)

Compound | IC50 [nM]
C[C@H](CCC(=O)N1CC[C@H](NC(=O)c2cnn(C)c2)C1)[C@H]1CC[C@H]2[C@@H]3CC=C4C[C@@H](O)CC[C@]4(C)[C@H]3CC[C@]12C [Example 526, N-[(3S)-1-[(4R)-4-[(1R,3aS,3bS,7S,9aR,9bS,11aR)-7-hydroxy-9a,11a-dimethyl-1H,2H,3H,3aH,3bH,4H,6H,7H,8H,9H,9aH,9bH,10H,11H,11aH-cyclopenta[a]phenanthren-1-yl]pentanoyl]pyrrolidin-3-yl]-1-methyl-1H-pyrazole-4-carboxamide] | < 250
Cc1noc(C(=O)N[C@H]2CCN(C(=O)CC[C@@H](C)[C@H]3CC[C@H]4[C@@H]5CC=C6C[C@@H](O)CC[C@]6(C)[C@H]5CC[C@]34C)C2)n1 [Example 527, N—((S)-1-((R)-4-((3S,8S,9S,10R,13R,14S,17R)-3-hydroxy-10,13-dimethyl-2,3,4,7,8,9,10,11,12,13,14,15,16,17-tetradecahydro-1H-cyclopenta[a]phenanthren-17-yl)pentanoyl)pyrrolidin-3-yl)-3-methyl-1,2,4-oxadiazole-5-carboxamide] | < 250
C[C@H](CCC(=O)N1CC[C@H](NC(=O)c2ccncn2)C1)[C@H]1CC[C@H]2[C@@H]3CC=C4C[C@@H](O)CC[C@]4(C)[C@H]3CC[C@]12C [Example 528, N—((S)-1-((R)-4-((3S,8S,9S,10R,13R,14S,17R)-3-hydroxy-10,13-dimethyl-2,3,4,7,8,9,10,11,12,13,14,15,16,17-tetradecahydro-1H-cyclopenta[a]phenanthren-17-yl)pentanoyl)pyrrolidin-3-yl)pyrimidine-4-carboxamide] | < 250
C[C@H](CCC(=O)N1CC[C@H](NC(=O)c2cnccn2)C1)[C@H]1CC[C@H]2[C@@H]3CC=C4C[C@@H](O)CC[C@]4(C)[C@H]3CC[C@]12C [Example 529, N—((S)-1-((R)-4-((3S,8S,9S,10R,13R,14S,17R)-3-hydroxy-10,13-dimethyl-2,3,4,7,8,9,10,11,12,13,14,15,16,17-tetradecahydro-1H-cyclopenta[a]phenanthren-17-yl)pentanoyl)pyrrolidin-3-yl)pyrazine-2-carboxamide] | < 250
C[C@H](CCC(=O)N1CC[C@H](Nc2ccncc2)C1)[C@H]1CC[C@H]2[C@@H]3CC=C4C[C@@H](O)CC[C@]4(C)[C@H]3CC[C@]12C [Example 530, (4R)-4-[(1R,3aS,3bS,7S,9aR,9bS,11aR)-7-hydroxy-9a,11a-dimethyl-1H,2H,3H,3aH,3bH,4H,6H,7H,8H,9H,9aH,9bH,10H,11H,11aH-cyclopenta[a]phenanthren-1-yl]-1-[(3S)-3-[(pyridin-4-yl)amino]pyrrolidin-1-yl]pentan-1-one] | 250 to 1000
C[C@H](CCC(=O)N1CC[C@H](Nc2ccncn2)C1)[C@H]1CC[C@H]2[C@@H]3CC=C4C[C@@H](O)CC[C@]4(C)[C@H]3CC[C@]12C [Example 531, (R)-4-((3S,8S,9S,10R,13R,14S,17R)-3-hydroxy-10,13-dimethyl-2,3,4,7,8,9,10,11,12,13,14,15,16,17-tetradecahydro-1H-cyclopenta[a]phenanthren-17-yl)-1-((S)-3-(pyrimidin-4-ylamino)pyrrolidin-1-yl)pentan-1-one] | < 250
CNC(=O)N[C@H]1CCN(C(=O)CC[C@@H](C)[C@H]2CC[C@H]3[C@@H]4CC=C5C[C@@H](O)CC[C@]5(C)[C@H]4CC[C@]23C)C1 [Example 533, 1-((S)-1-((R)-4-((3S,8S,9S,10R,13R,14S,17R)-3-hydroxy-10,13-dimethyl-2,3,4,7,8,9,10,11,12,13,14,15,16,17-tetradecahydro-1H-cyclopenta[a]phenanthren-17-yl)pentanoyl)pyrrolidin-3-yl)-3-methylurea] | < 250
C[C@H](CCC(=O)N1CC[C@H](NC(=O)N(C)C)C1)[C@H]1CC[C@H]2[C@@H]3CC=C4C[C@@H](O)CC[C@]4(C)[C@H]3CC[C@]12C [Example 534, 3-((S)-1-((R)-4-((3S,8S,9S,10R,13R,14S,17R)-3-hydroxy-10,13-dimethyl-2,3,4,7,8,9,10,11,12,13,14,15,16,17-tetradecahydro-1H-cyclopenta[a]phenanthren-17-yl)pentanoyl)pyrrolidin-3-yl)-1,1-dimethylurea] | < 250
C[C@H](CCC(=O)N1CC[C@H](NS(C)(=O)=O)C1)[C@H]1CC[C@H]2[C@@H]3CC=C4C[C@@H](O)CC[C@]4(C)[C@H]3CC[C@]12C [Example 535, N—((S)-1-((R)-4-((3S,8S,9S,10R,13R,14S,17R)-3-hydroxy-10,13-dimethyl-2,3,4,7,8,9,10,11,12,13,14,15,16,17-tetradecahydro-1H-cyclopenta[a]phenanthren-17-yl)pentanoyl)pyrrolidin-3-yl)methanesulfonamide] | 250 to 1000
CNC(=O)[C@H]1CCN(C(=O)CC[C@@H](C)[C@H]2CC[C@H]3[C@@H]4CC=C5C[C@@H](O)CC[C@]5(C)[C@H]4CC[C@]23C)C1 [Example 536, (S)-1-((R)-4-((3S,8S,9S,10R,13R,14S,17R)-3-hydroxy-10,13-dimethyl-2,3,4,7,8,9,10,11,12,13,14,15,16,17-tetradecahydro-1H-cyclopenta[a]phenanthren-17-yl)pentanoyl)-N-methylpyrrolidine-3-carboxamide] | 250 to 1000
C[C@H](CCC(=O)N1CC[C@H](C(=O)N(C)C)C1)[C@H]1CC[C@H]2[C@@H]3CC=C4C[C@@H](O)CC[C@]4(C)[C@H]3CC[C@]12C [Example 537, (S)-1-((R)-4-((3S,8S,9S,10R,13R,14S,17R)-3-hydroxy-10,13-dimethyl-2,3,4,7,8,9,10,11,12,13,14,15,16,17-tetradecahydro-1H-cyclopenta[a]phenanthren-17-yl)pentanoyl)-N,N-dimethylpyrrolidine-3-carboxamide] | 250 to 1000
CCN(CCc1ccccn1)C(=O)CC[C@@H](C)[C@H]1CC[C@H]2[C@@H]3CC=C4C[C@@H](O)CC[C@]4(C)[C@H]3CC[C@]12C [Example 541, (4R)-4-[(1R,3aS,3bS,7S,9aR,9bS,11aR)-7-hydroxy-9a,11a-dimethyl-1H,2H,3H,3aH,3bH,4H,6H,7H,8H,9H,9aH,9bH,10H,11H,11aH-cyclopenta[a]phenanthren-1-yl]-N-ethyl-N-[2-(pyridin-2-yl)ethyl]pentanamide] | < 250
C[C@H](CCC(=O)N(C)Cc1ccccn1)[C@H]1CC[C@H]2[C@@H]3CC=C4C[C@@H](O)CC[C@]4(C)[C@H]3CC[C@]12C [Example 542, (4R)-4-[(1R,3aS,3bS,7S,9aR,9bS,11aR)-7-hydroxy-9a,11a-dimethyl-1H,2H,3H,3aH,3bH,4H,6H,7H,8H,9H,9aH,9bH,10H,11H,11aH-cyclopenta[a]phenanthren-1-yl]-N-methyl-N— [(pyridin-2-yl)methyl]pentanamide] | 250 to 1000
C[C@H](CCC(=O)N(C)CCc1ccncc1)[C@H]1CC[C@H]2[C@@H]3CC=C4C[C@@H](O)CC[C@]4(C)[C@H]3CC[C@]12C [Example 544, (R)-4-((3S,8S,9S,10R,13R,14S,17R)-3-hydroxy-10,13-dimethyl-2,3,4,7,8,9,10,11,12,13,14,15,16,17-tetradecahydro-1H-cyclopenta[a]phenanthren-17-yl)-N-methyl-N-(2-(pyridin-4-yl)ethyl)pentanamide] | < 250
C[C@H](CCC(=O)Nc1ccc(C(N)=O)cc1)[C@H]1CC[C@H]2[C@@H]3CC=C4C[C@@H](O)CC[C@]4(C)[C@H]3CC[C@]12C [Example 556, 4-((R)-4-((3S,8S,9S,10R,13R,14S,17R)-3-hydroxy-10,13-dimethyl-2,3,4,7,8,9,10,11,12,13,14,15,16,17-tetradecahydro-1H-cyclopenta[a]phenanthren-17-yl)pentanamido)benzamide] | < 250
C[C@H](CCC(=O)N1CCN(C2CC2)CC1)[C@H]1CC[C@H]2[C@@H]3CC=C4C[C@@H](O)CC[C@]4(C)[C@H]3CC[C@]12C [Example 558, (4R)-4-[(1R,3aS,3bS,7S,9aR,9bS,11aR)-7-hydroxy-9a,11a-dimethyl-1H,2H,3H,3aH,3bH,4H,6H,7H,8H,9H,9aH,9bH,10H,11H,11aH-cyclopenta[a]phenanthren-1-yl]-1-(4-cyclopropylpiperazin-1-yl)pentan-1-one] | < 250
C[C@H](CCC(=O)N1CC[C@@H](Oc2ccncc2)C[C@@H]1C)[C@H]1CC[C@H]2[C@@H]3CC=C4C[C@@H](O)CC[C@]4(C)[C@H]3CC[C@]12C [Example 586, (R)-4-((3S,8S,9S,10R,13R,14S,17R)-3-hydroxy-10,13-dimethyl-2,3,4,7,8,9,10,11,12,13,14,15,16,17-tetradecahydro-1H-cyclopenta[a]phenanthren-17-yl)-1-((2S,4R)-2-methyl-4-(pyridin-4-yloxy)piperidin-1-yl)pentan-1-one] | < 250
CCC1(O)CCN(C(=O)C[C@@H](C)[C@H]2CC[C@H]3[C@@H]4CC=C5C[C@@H](O)CC[C@]5(C)[C@H]4CC[C@]23C)CC1 [Example 592, (R)-1-(4-ethyl-4-hydroxypiperidin-1-yl)-3-((3S,8S,9S,10R,13R,14S,17R)-3-hydroxy-10,13-dimethyl-2,3,4,7,8,9,10,11,12,13,14,15,16,17-tetradecahydro-1H-cyclopenta[a]phenanthren-17-yl)butan-1-one] | < 250
(4R)-4-[(1R,3aS,3bS,7S,9aR,9bS,11aR)-7-hydroxy-9a,11a-dimethyl-1H,2H,3H,3aH,3bH,4H,6H,7H,8H,9H,9aH,9bH,10H,11H,11aH-cyclopenta[a]phenanthren-1-yl]-1-[(3R)-3-(pyrimidin-4-yloxy)piperidin-1-yl]pentan-1-one [Example 462] | < 250
